Measurements: US9428504B2, “7-hydroxy-spiropipiperidine indolinyl antagonists of P2Y1 receptor” (BRISTOL-MYERS SQUIBB COMPANY, priority 2012, dated 2016)
Counter-ions that a name gives are not always drawn.

Assays:
[1] = target: cloned human P2Y1 receptors (Homo sapiens (Human), UniProt P47900); test: Binding Assay B: Scintillation Proximity Assay (SPA) for P2Y1 binding; details: SPA, [33P] 2MeS-ADP displacement; read-out: P2Y1 Ki (nM) using binding assay B
Summary of the method: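 Membranes with ~15 fmol receptor (1.7 μg total protein) incubated with 0.3 nM [^33P]-labelled radioligand for 1 h at room temperature to completion. After centrifugation and removal of aqueous phase, bound radioactivity read by scintillation proximity; inhibition of radioligand binding measured.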

[2] = test system: human platelet rich plasma (PRP); test: ADP induced platelet aggregation assay; details: Homo sapiens, Platelet, read-out: PA IC50 (μM) @ 10 μM ADP, platelet aggregation induced by 10 μM ADP, human PRP

Chain of cloned human P2Y1 receptors (P47900 whole entry): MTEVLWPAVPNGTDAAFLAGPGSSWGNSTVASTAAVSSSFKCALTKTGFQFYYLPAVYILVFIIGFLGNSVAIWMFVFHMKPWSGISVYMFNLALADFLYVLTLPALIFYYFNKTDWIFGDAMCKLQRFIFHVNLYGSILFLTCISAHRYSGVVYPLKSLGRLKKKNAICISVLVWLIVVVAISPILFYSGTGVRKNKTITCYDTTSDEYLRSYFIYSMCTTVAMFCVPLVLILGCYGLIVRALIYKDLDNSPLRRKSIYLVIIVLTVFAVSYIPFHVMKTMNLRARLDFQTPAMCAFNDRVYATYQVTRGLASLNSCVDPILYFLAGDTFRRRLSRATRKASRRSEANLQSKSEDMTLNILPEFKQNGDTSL

Structure (SMILES)	Ki [1]	IC50 [2]
CC(C)(C)CN1CCC2(CC1)CN(c1ccccc1NC(=O)Nc1nc3ccc(F)cc3s1)c1c(O)ccc(C(F)(F)F)c12 [Example 3, 1-(6-Fluorobenzo[d]thiazol-2-yl)-3-(2-(7-hydroxy-1′-neopentyl-4-(trifluoromethyl)spiro[indoline-3,4′-piperidine]-1-yl)phenyl)urea]	8.9 nM	0.1 µM
CC(C)CN1CCC2(CC1)CN(c1ccccc1NC(=O)Nc1nc3ccc(F)cc3s1)c1c(O)ccc(C(F)(F)F)c12 [Example 31, 1-(6-Fluorobenzo[d]thiazol-2-yl)-3-(2-(7-hydroxy-1′-isobutyl-4-(trifluoromethyl)spiro[indoline-3,4′-piperidine]-1-yl)phenyl)urea]	16.4 nM	0.1 µM
CC(C)(C)CN1CCC2(CC1)CN(c1ccccc1NC(=O)Nc1nc3ccc(F)cc3s1)c1c(O)ccc(-c3nc4cc(F)ccc4s3)c12 [Example 138, 1-(6-Cluorobenzo[d]thiazol-2-yl)-3-(2-(4-(5-fluorobenzo[d]thiazol-2-yl)-7-hydroxy-1′-neopentylspiro[indoline-3,4′-piperidin]-1-yl)phenyl)urea]	24.6 nM	0.2 µM
CC(C)(C)CN1CCC2(CC1)CN(c1ccccc1NC(=O)Nc1csc(Cl)n1)c1c(O)ccc(Cl)c12 [Example 61, 1-(2-(4-Chloro-7-hydroxy-1′-neopentylspiro[indoline-3,4′-piperidin]-1-yl)phenyl)-3-(2-chlorothiazol-4-yl)urea]	5.8 nM	0.2 µM
CC(C)(C)CN1CCC2(CC1)CN(c1ccccc1NC(=O)Nc1ccc(C(F)(F)F)cc1)c1c(O)ccc(Cl)c12 [Example 60, 1-(2-(4-Chloro-7-hydroxy-1′-neopentylspiro[indoline-3,4′-piperidin]-1-yl)phenyl)-3-(4-(trifluoromethyl)phenyl)urea]	6.4 nM	0.4 µM
CC(C)(C)CN1CCC2(CC1)CN(c1ccccc1NC(=O)Nc1ccc(OC(F)(F)F)cc1)c1c(O)ccc(-c3nc4c(Cl)cccc4s3)c12 [Example 115, 1-(2-(4-(4-Chlorobenzo[d]thiazol-2-yl)-7-hydroxy-1′-neopentylspiro[indoline-3,4′-piperidin]-1-yl)phenyl)-3-(4-(trifluoromethoxy)phenyl)urea]	22.8 nM	1 µM
CC(C)CN1CCCC1c1ccc(NC(=O)Nc2ccccc2N2CC3(CCN(CC(C)(C)C)CC3)c3c(F)c(F)cc(O)c32)cc1 (centres unmarked) [Example 104, 1-(2-(4,5-Difluoro-7-hydroxy-1′-neopentylspiro [indoline-3,4′-piperidine]-1-yl)phenyl)-3-(4-(1-isobutylpyrrolidin-2-yl)phenyl)urea]	17 nM	1 µM
CC(C)(C)CN1CCC2(CC1)CN(c1ccccc1NC(=O)Nc1nc3ccc(OC(F)(F)F)cc3s1)c1c(O)ccc(Cl)c12 [Example 52, 1-(2-(4-Chloro-7-hydroxy-1′-neopentylspiro[indoline-3,4′-piperidine]-1-yl)phenyl)-3-(6-(trifluoromethoxy)benzo[d]thiazol-2-yl)urea, TFA]	9.2 nM	0.3 µM
CC(C)(C)CN1CCC2(CC1)CN(c1ccccc1NC(=O)Nc1nc3ccc(F)cc3s1)c1c(O)cc(F)c(-c3ccc(Cl)cc3)c12 [Example 165, 1-(2-(4-(4-Chlorophenyl)-5-fluoro-7-hydroxy-1′-neopentylspiro[indoline-3,4′-piperidin]-1-yl)phenyl)-3-(6-fluorobenzo[d]thiazol-2-yl)urea]	56.2 nM	0.3 µM
CC(C)(C)CN1CCC2(CC1)CN(c1ccccc1NC(=O)Nc1nc3ccc(Cl)nc3s1)c1c(O)cc(F)c(-c3ccc(Cl)cc3)c12 [Example 164, 1-(2-(4-(4-Chlorophenyl)-5-fluoro-7-hydroxy-1′-neopentylspiro[indoline-3,4′-piperidin]-1-yl)phenyl)-3-(5-chlorothiazolo[5,4-b]pyridin-2-yl)urea]	24.9 nM	0.6 µM
COc1ccc2nc(NC(=O)Nc3ccccc3N3CC4(CCN(CC(C)(C)C)CC4)c4c(Cl)ccc(O)c43)sc2c1 [Example 47, 1-(2-(4-Chloro-7-hydroxy-1′-neopentylspiro[indoline-3,4′-piperidine]-1-yl)phenyl)-3-(6-methoxybenzo[d]thiazol-2-yl)urea, TFA]	9.4 nM	0.3 µM
CC(C)(C)CN1CCC2(CC1)CN(c1ccccc1NC(=O)Nc1nc3ccc(Cl)cc3s1)c1c(O)ccc(-c3nc4cc(Cl)ccc4s3)c12 [Example 149, 1-(6-Chlorobenzo[d]thiazol-2-yl)-3-(2-(4-(5-chlorobenzo[d]thiazol-2-yl)-7-hydroxy-1′-neopentylspiro[indoline-3,4′-piperidin]-1-yl)phenyl)urea]	26.8 nM	0.9 µM
CC(C)(C)CN1CCC2(CC1)CN(c1ccccc1NC(=O)Nc1csc(Cl)c1)c1c(O)ccc(C(F)(F)F)c12 [Example 26, 1-(5-Chlorothiophen-3-yl)-3-(2-(7-hydroxy-1′-neopentyl-4-(trifluoromethyl)spiro[indoline-3,4′-piperidine]-1-yl)phenyl)urea]	7.3 nM	0.2 µM
COc1ccc2nc(-c3ccc(O)c4c3C3(CCN(CC(C)(C)C)CC3)CN4c3ccccc3NC(=O)Nc3csc(Cl)n3)sc2c1 [Example 128, 1-(2-Chlorothiazol-4-yl)-3-(2-(7-hydroxy-4-(6-methoxybenzo[d]thiazol-2-yl)-1′-neopentylspiro[indoline-3,4′-piperidin]-1-yl)phenyl)urea]	8 nM	0.2 µM
CC(C)(C)CN1CCC2(CC1)CN(c1ccccc1NC(=O)Nc1ccc(OC(F)(F)F)cc1)c1c(O)cc(F)c(-c3nc4cc(Cl)ccc4s3)c12 [Example 137, 1-(2-(4-(5-Chlorobenzo[d]thiazol-2-yl)-5-fluoro-7-hydroxy-1′-neopentylspiro[indoline-3,4′-piperidin]-1-yl)phenyl)-3-(4-(trifluoromethoxy)phenyl)urea]	44.7 nM	0.4 µM
CC(C)(C)CN1CCC2(CC1)CN(c1ccccc1NC(=O)Nc1ccc(OC(F)(F)F)cc1)c1c(O)ccc(-c3nc4cc(F)ccc4s3)c12 [Example 135, 1-(2-(4-(5-Fluorobenzo[d]thiazol-2-yl)-7-hydroxy-1′-neopentylspiro[indoline-3,4′-piperidin]-1-yl)phenyl)-3-(4-(trifluoromethoxy)phenyl)urea]	21.7 nM	0.6 µM
CC(C)CN1CCC2(CC1)CN(c1ccccc1NC(=O)Nc1nc3ccc(Cl)cc3s1)c1c(O)ccc(C(F)(F)F)c12 [Example 30, 1-(6-Chlorobenzo[d]thiazol-2-yl)-3-(2-(7-hydroxy-1′-isobutyl-4-(trifluoromethyl)spiro[indoline-3,4′-piperidine]-1-yl)phenyl)urea]	14.5 nM	0.1 µM
CC(C)CN1CCc2nc(NC(=O)Nc3ccccc3N3CC4(CCN(CC(C)(C)C)CC4)c4c(Cl)ccc(O)c43)sc2C1 [Example 74, 1-(2-(4-Chloro-7-hydroxy-1′-neopentylspiro[indoline-3,4′-piperidine]-1-yl)phenyl)-3-(5-isobutyl-4,5,6,7-tetrahydrothiazolo[5,4-c]pyridin-2-yl)urea]	10.3 nM	0.2 µM
Cc1nc(NC(=O)Nc2ccccc2N2CC3(CCN(CC(C)(C)C)CC3)c3c(C(F)(F)F)ccc(O)c32)cs1 [Example 25, 1-(2-(7-Hydroxy-1′-neopentyl-4-(trifluoromethyl)spiro[indoline-3,4′-piperidine]-1-yl)phenyl)-3-(2-methylthiazol-4-yl)urea]	4.9 nM	0.1 µM
CC(C)CN1CCC2(CC1)CN(c1ccccc1NC(=O)Nc1nc3ccc(F)cc3s1)c1c(O)ccc(Cl)c12 [Example 4, 1-(2-(4-Chloro-7-hydroxy-1′-isobutylspiro[indoline-3,4′-piperidine]-1-yl)phenyl)-3-(6-fluorobenzo[d]thiazol-2-yl)urea]	9.9 nM	0.4 µM
CC(C)CN1CCC2(CC1)CN(c1ccccc1NC(=O)Nc1nc3ccc(Cl)cc3s1)c1c(O)ccc(Cl)c12 [Example 65, 1-(2-(4-Chloro-7-hydroxy-1′-isobutylspiro[indoline-3,4′-piperidine]-1-yl)phenyl)-3-(6-chlorobenzo[d]thiazol-2-yl)urea]	7.8 nM	0.4 µM
CC(C)(C)CN1CCC2(CC1)CN(c1ccc(C#N)cc1NC(=O)Nc1nc3ccc(F)cc3s1)c1c(O)ccc(Cl)c12 [Example 70, 1-(2-(4-Chloro-7-hydroxy-1′-neopentylspiro[indoline-3,4′-piperidine]-1-yl)-5-cyanophenyl)-3-(6-fluorobenzo[d]thiazol-2-yl)urea]	29.4 nM	1 µM
CC(C)(C)CN1CCC2(CC1)CN(c1ccccc1NC(=O)Nc1csc(C(F)(F)F)n1)c1c(O)cc(F)c(-c3ccc(C(F)(F)F)nc3)c12 [Example 159, 1-(2-(5-Fluoro-7-hydroxy-1′-neopentyl-4-(6-(trifluoromethyl)pyridin-3-yl)spiro[indoline-3,4′-piperidin]-1-yl)phenyl)-3-(2-(trifluoromethyl)thiazol-4-yl)urea]	281 nM	0.1 µM
CC(C)(C)CN1CCC2(CC1)CN(c1ccccc1NC(=O)Nc1nccs1)c1c(O)ccc(C(F)(F)F)c12 [Example 29, 1-(2-(7-Hydroxy-1′-neopentyl-4-(trifluoromethyl)spiro[indoline-3,4′-piperidine]-1-yl)phenyl)-3-(thiazol-2-yl)urea]	6.4 nM	0.4 µM
CC(C)(C)CN1CCC2(CC1)CN(c1ccccc1NC(=O)Nc1ccc(C(C)(C)C)cc1)c1c(O)ccc(Cl)c12 [Example 55, 1-(4-tert-Butylphenyl)-3-(2-(4-chloro-7-hydroxy-1′-neopentylspiro[indoline-3,4′-piperidine]-1-yl)phenyl)urea]	9.7 nM	1 µM
